Assay results: PubChem BioAssay AID1224921 (Broad Institute, 2016)
The source made the active and inactive calls. No rule for the calls is given here.

What follows are molecules tested on Clostridioides difficile clinical isolate growth, OD600, 24 h (assay: C. difficile growth inhibition, confirmation, 4-point retest (AID 1224921)).
`CC(=O)N[C@@H]1CC[C@@H](CCNC(=O)Nc2ccc(C(F)(F)F)cc2)O[C@H]1CO` gave an AC50 of 12.7 µM.
`C[C@@H]1CCCCO[C@H](CN(C)CC2CCCCC2)[C@H](C)CN([C@@H](C)CO)C(=O)c2cc(NC(=O)Nc3ccc(C(F)(F)F)cc3)ccc2O1` was tested, and the AC50 was 10.4 µM.
`O=C1C[C@@](C(=O)NCCN2CCOCC2)(c2ccc([N+](=O)[O-])cc2)[C@@H](c2ccc(CO)cc2I)N1CC12CC3CC(CC(C3)C1)C2` gave an AC50 of 18.8 µM.
For `O=C(C[C@H]1CC[C@@H]2[C@H](COC[C@@H](O)CN2C(=O)Nc2ccc(Cl)c(Cl)c2)O1)NCc1ccc(Cl)c(Cl)c1`, the AC50 was 3.34 µM.
`O=C(C[C@@H]1CC[C@H]2[C@@H](COC[C@H](O)CN2C(=O)Nc2ccc(Cl)c(Cl)c2)O1)NCc1ccc(Cl)c(Cl)c1` gave an AC50 of 1.1 µM.
In the case of `NC(=O)[C@@H]1[C@H]2C(=O)O[C@H](c3ccccc3)[C@H](c3ccccc3)N2[C@H](c2ccccc2OCCO)[C@@]12C(=O)Nc1ccccc12`, the AC50 is reported as 32.8 µM.
Work on `C[C@H](CO)N1C[C@H](C)[C@H](CN(C)C(=O)Nc2ccc(F)cc2)Oc2c(NC(=O)Nc3ccc(C(F)(F)F)cc3)cccc2C1=O` yielded an AC50 of 33.7 µM.
Work on `CO[C@@H]1CN(C)C(=O)c2cc(NC(=O)Nc3ccc(Cl)c(Cl)c3)ccc2OC[C@@H](C)NC[C@@H]1C` yielded an AC50 of 4.25 µM.
Work on `CO[C@H](CN(C)C(=O)C1CCOCC1)[C@@H](C)CN(C(=O)Nc1ccc(C(F)(F)F)cc1)[C@@H](C)CO` yielded an AC50 of 3.16 µM.
Molecule `C[C@H](CO)N1C[C@H](C)[C@H](CN(C)C(=O)Nc2ccccc2)Oc2c(NC(=O)Nc3ccc(C(F)(F)F)cc3)cccc2C1=O` has an AC50 of 26.5 µM.
`CCC(=O)N[C@H]1CC[C@H](CCNC(=O)Nc2ccc(C(F)(F)F)cc2)O[C@@H]1CO` showed an AC50 of 3.05 µM.
`O=C(C[C@H]1CC[C@H]2[C@@H](COC[C@H](O)CN2S(=O)(=O)c2ccccc2)O1)NCC1CCCCC1` gave an AC50 of 13.5 µM.
`C[C@@H](NC(=O)C[C@H]1CC[C@H]2[C@@H](COC[C@H](O)CN2C(=O)Nc2cccc(Cl)c2)O1)c1ccccc1` showed an AC50 of 9.84 µM.
For `COc1ccc(S(=O)(=O)Nc2cccc3c2O[C@H](CN(C)Cc2ccc(Oc4ccccc4)cc2)[C@H](C)CN([C@@H](C)CO)C3=O)cc1`, the AC50 was 3.67 µM.
Molecule `CO[C@H](CN(C)C(=O)C1CCOCC1)[C@@H](C)CN(C(=O)Nc1ccc(C(F)(F)F)cc1)[C@H](C)CO` has an AC50 of 0.831 µM.
`C[C@@H]1CN([C@@H](C)CO)C(=O)c2cccc(NC(=O)Nc3ccc(C(F)(F)F)cc3)c2O[C@@H]1CN(C)Cc1ccc(-c2ccccc2)cc1` was tested, and the AC50 was < 0.5 µM.
Work on `CO[C@H]1CN(C)C(=O)c2ccc(NC(=O)Nc3ccc(Cl)c(Cl)c3)cc2OC[C@H](C)NC[C@H]1C` yielded an AC50 of 9.83 µM.
`C[C@@H]1CN([C@@H](C)CO)C(=O)Cc2cc(NS(C)(=O)=O)ccc2O[C@H]1CN(C)Cc1ccc(Cl)c(Cl)c1` was tested, and the AC50 was 8.49 µM.
Work on `CCNC(=O)C[C@@H]1CC[C@@H]2[C@H](COC[C@H](O)CN2C(=O)Nc2ccc(Cl)c(Cl)c2)O1` yielded an AC50 of 4.07 µM.
Work on `CO[C@@H](CN(C)S(=O)(=O)c1cn(C)cn1)[C@@H](C)CN(C(=O)Nc1ccc(C(F)(F)F)cc1)[C@H](C)CO` yielded an AC50 of 16.5 µM.
Molecule `C[C@@H]1CCCCO[C@@H](CN(C)CC2CC2)[C@H](C)CN([C@@H](C)CO)C(=O)c2cc(NC(=O)Nc3ccc(C(F)(F)F)cc3)ccc2O1` has an AC50 of 17.6 µM.
Work on `C[C@@H]1CCCCO[C@H](CN(C)Cc2ccccc2)[C@@H](C)CN([C@@H](C)CO)C(=O)c2cc(NC(=O)Nc3ccc(C(F)(F)F)cc3)ccc2O1` yielded an AC50 of 12.5 µM.
For `CO[C@@H](CN(C)Cc1cc(F)ccc1F)[C@H](C)CN(C(=O)Nc1ccc(C(F)(F)F)cc1)[C@@H](C)CO`, the AC50 was 3.71 µM.
Molecule `O=C(C[C@@H]1CC[C@@H]2[C@H](COC[C@@H](O)CN2C(=O)Nc2cccc(Cl)c2)O1)N1CCCCC1` has an AC50 of 18.7 µM.
In the case of `CO[C@H]1CN(C)C(=O)c2ccc(NC(=O)c3nc4ccccc4s3)cc2OC[C@H](C)N(Cc2ccncc2)C[C@@H]1C`, the AC50 is reported as > 60 µM (inactive).
With `COc1ccc(C#Cc2cnc3c(c2)C(=O)N([C@@H](C)CO)C[C@@H](C)[C@H](CN(C)CC2CCCC2)O3)cc1` the AC50 was 13.1 µM.
In the case of `O=C(C[C@@H]1CC[C@H]2[C@@H](COC[C@@H](O)CN2C(=O)Nc2ccc(Cl)c(Cl)c2)O1)NCc1ccc(Cl)c(Cl)c1`, the AC50 is reported as < 0.5 µM.
`CCS(=O)(=O)N1[C@H](CO)[C@H](c2ccc(C#CCC3CCCC3)cc2)[C@@H]1C#N` gave an AC50 of 19.8 µM.
`CO[C@@H]1CN(C)C(=O)c2cc(NC(=O)C3CCCC3)ccc2OC[C@@H](C)N(C(=O)Nc2ccc(C(F)(F)F)cc2)C[C@H]1C` gave an AC50 of 26.6 µM.
With `O=C(C[C@@H]1CC[C@H]2[C@@H](COC[C@@H](O)CN2C(=O)Nc2ccc(C(F)(F)F)cc2)O1)NCC1CCCCC1` the AC50 was 3.56 µM.
With `O=C(C[C@H]1CC[C@H]2[C@@H](COC[C@@H](O)CN2C(=O)c2cnccn2)O1)NCc1ccc(Cl)cc1` the AC50 was > 60 µM (inactive).
Work on `CCNC(=O)C[C@@H]1CC[C@@H]2[C@H](COC[C@H](O)CN2C(=O)Nc2ccc(C(F)(F)F)cc2)O1` yielded an AC50 of 11.8 µM.
With `COc1ccccc1S(=O)(=O)N(C)C[C@H]1OCc2ccccc2-c2c(n(C)c3ccccc23)C(=O)N([C@H](C)CO)C[C@@H]1C` the AC50 was > 60 µM (inactive).
`C/C=C/c1ccc2c(c1)O[C@H](CN(C)C(=O)c1ccc(F)cc1)[C@H](C)CN([C@H](C)CO)S2(=O)=O` was tested, and the AC50 was > 60 µM (inactive).
`COc1ccccc1-c1ccc2c(c1)O[C@H](CN(C)C(=O)c1ccccc1)[C@H](C)CN([C@H](C)CO)S2(=O)=O` was tested, and the AC50 was > 60 µM (inactive).
`C[C@H](CO)N1C[C@H](C)[C@@H](CN(C)Cc2ccc(-c3ccccc3)cc2)Oc2c(NC(=O)c3ccncc3)cccc2C1=O` was tested, and the AC50 was 6.59 µM.
For `CO[C@@H]1CN(C)C(=O)c2ccc(NC(=O)c3ccccc3)cc2OC[C@H](C)N(C(=O)C2CC2)C[C@H]1C`, the AC50 was > 60 µM (inactive).
`CCNC(=O)C[C@@H]1CC[C@@H]2[C@H](COC[C@@H](O)CN2C(=O)Nc2ccc(Cl)c(Cl)c2)O1` gave an AC50 of 16.5 µM.
With `CN(C)CC(=O)N[C@H]1CC[C@H](CCNC(=O)Nc2ccc(C(F)(F)F)cc2)O[C@H]1CO` the AC50 was 10.9 µM.
`C[C@@H]1CN([C@H](C)CO)S(=O)(=O)c2ccc(/C=C/c3ccccc3)cc2O[C@H]1CN(C)Cc1ccc(C(=O)O)cc1` was tested, and the AC50 was < 0.5 µM.
`N#C[C@H]1[C@H](c2ccc(C#Cc3ccc(F)cc3)cc2)[C@@H](CO)N1C(=O)C1CCCC1` was tested, and the AC50 was > 70 µM (inactive).
`C[C@@H]1CN([C@H](C)CO)S(=O)(=O)c2ccc(C#CCC3CCCC3)cc2O[C@H]1CN(C)C` showed an AC50 of 16.9 µM.
In the case of `O=C(C[C@H]1CC[C@@H]2[C@H](COC[C@H](O)CN2C(=O)Nc2cc(Cl)cc(Cl)c2)O1)N1CCOCC1`, the AC50 is reported as 9.61 µM.
With `C[C@@H](NC(=O)C[C@H]1CC[C@@H]2[C@H](COC[C@H](O)CN2C(=O)Nc2cc(Cl)cc(Cl)c2)O1)c1ccccc1` the AC50 was 10.9 µM.
`CO[C@H](CN(C)C(=O)C1CCOCC1)[C@H](C)CN(C(=O)Nc1ccc(C(F)(F)F)cc1)[C@@H](C)CO` was tested, and the AC50 was 4.13 µM.
With `Cn1cnc(CCNC(=O)C[C@@H]2CC[C@@H]3[C@H](COC[C@H](O)CN3C(=O)Nc3ccc(C(F)(F)F)cc3)O2)c1` the AC50 was 19.6 µM.
With `CO[C@H](CN(C)C(=O)C1CC1)[C@@H](C)CN(C(=O)Nc1ccc(C(F)(F)F)cc1)[C@H](C)CO` the AC50 was 3.59 µM.
`CNC(=O)C[C@H]1CC[C@H]2[C@@H](COC[C@H](O)CN2C(=O)Nc2ccc(Cl)c(Cl)c2)O1` was tested, and the AC50 was < 1.95 µM.
`O=C(NCC[C@H]1CC[C@H](NC(=O)c2cccnc2)[C@H](CO)O1)Nc1ccc(C(F)(F)F)cc1` was tested, and the AC50 was 1.6 µM.
`CCNC(=O)C[C@@H]1CC[C@@H]2[C@H](COC[C@@H](O)CN2C(=O)Nc2ccc(C(F)(F)F)cc2)O1` gave an AC50 of 13.6 µM.
`C[C@@H]1CN([C@@H](C)CO)C(=O)c2c(c3ccccc3n2C)-c2ccccc2CO[C@@H]1CN(C)Cc1ccncc1` was tested, and the AC50 was > 60 µM (inactive).
For `O=C(C[C@H]1CC[C@@H]2[C@H](COC[C@H](O)CN2C(=O)Nc2ccc(Cl)c(Cl)c2)O1)NCc1ccc(F)cc1`, the AC50 was 1.91 µM.
`O=C(C[C@H]1CC[C@H]2[C@@H](COC[C@@H](O)CN2C(=O)Nc2cc(Cl)cc(Cl)c2)O1)NCC1CC1` was tested, and the AC50 was 10.9 µM.
Molecule `C[C@@H]1CN([C@H](C)CO)C(=O)c2cc(C#CCc3ccccc3)cnc2O[C@H]1CN(C)CC1CCCC1` has an AC50 of 31 µM.
For `N#C[C@H]1[C@H](c2ccc(C#Cc3cccc(F)c3)cc2)[C@@H](CO)N1C(=O)C1CCC1`, the AC50 was > 16 µM (inactive).
Work on `O=C(C[C@@H]1CC[C@H]2[C@@H](COC[C@@H](O)CN2C(=O)Nc2ccc(Cl)c(Cl)c2)O1)NC1CCC1` yielded an AC50 of 3.86 µM.
In the case of `O=C(NCC[C@@H]1CC[C@@H](NC(=O)c2cccnc2)[C@@H](CO)O1)Nc1ccc(C(F)(F)F)cc1`, the AC50 is reported as 13.8 µM.
In the case of `COc1ccccc1S(=O)(=O)N(C)C[C@@H]1OCc2ccccc2-c2c(n(C)c3ccccc23)C(=O)N([C@H](C)CO)C[C@@H]1C`, the AC50 is reported as > 60 µM (inactive).
For `CS(=O)(=O)N1[C@H](C#N)[C@@H](c2ccc(C#CC3CCCC3)cc2)[C@@H]1CO`, the AC50 was > 70 µM (inactive).
Molecule `O=C(C[C@H]1CC[C@@H]2[C@H](COC[C@H](O)CN2C(=O)Nc2ccc(C(F)(F)F)cc2)O1)NCC1CC1` has an AC50 of 3.63 µM.
Molecule `CNC(=O)C[C@@H]1CC[C@@H]2[C@H](COC[C@@H](O)CN2C(=O)Nc2ccc(Cl)c(Cl)c2)O1` has an AC50 of 2.31 µM.
Molecule `CNC[C@H]1OCCCC[C@@H](C)Oc2ccc(NC(=O)Nc3ccc(C(F)(F)F)cc3)cc2C(=O)N([C@H](C)CO)C[C@H]1C` has an AC50 of 15.4 µM.
`C[C@@H]1CN([C@H](C)CO)S(=O)(=O)c2ccc(C#CCC3CCCC3)cc2O[C@@H]1CN(C)C(=O)CN(C)C` was tested, and the AC50 was 17.6 µM.
`O=C(C[C@H]1CC[C@@H]2[C@H](COC[C@H](O)CN2C(=O)Nc2ccc(Cl)c(Cl)c2)O1)NCc1ccc(Cl)cc1` gave an AC50 of 1.88 µM.
With `C[C@@H]1CCCCO[C@H](CN(C)CC2CCCCC2)[C@H](C)CN([C@@H](C)CO)C(=O)c2cc(NS(=O)(=O)c3ccc(Cl)cc3)ccc2O1` the AC50 was 14.6 µM.
`CO[C@H](CN(C)C(=O)C1CC1)[C@@H](C)CN(C(=O)Nc1ccc(C(F)(F)F)cc1)[C@@H](C)CO` showed an AC50 of 6.86 µM.
For `CO[C@H](CN(C)C(=O)C1CCOCC1)[C@H](C)CN(C(=O)Nc1ccc(C(F)(F)F)cc1)[C@H](C)CO`, the AC50 was 5.96 µM.
`C[C@H]1CN([C@@H](C)CO)C(=O)c2cccc(NC(=O)Nc3ccccc3)c2O[C@H]1CN(C)C(=O)Nc1ccc(C(F)(F)F)cc1` was tested, and the AC50 was 28.2 µM.
In the case of `CCC(=O)Nc1ccc2c(c1)C(=O)N(C)C[C@@H](OC)[C@H](C)CN(C(=O)NC(C)C)[C@@H](C)CO2`, the AC50 is reported as > 60 µM (inactive).
With `C[C@@H]1CN([C@H](C)CO)S(=O)(=O)c2ccc(C#Cc3cccc(F)c3)cc2O[C@H]1CN(C)C` the AC50 was > 60 µM (inactive).
Work on `O=C(C[C@H]1CC[C@@H]2[C@H](COC[C@@H](O)CN2S(=O)(=O)c2ccc(F)cc2)O1)NCC1CCCCC1` yielded an AC50 of 15.8 µM.
